Data on seven molecules can be found in patent US20240000786A1, “COMPOSITION FOR ENHANCING INTRA-CELLULAR NITRIC OXIDE GENERATION” (INSTITUTE OF LIFE SCIENCES, priority 2020, published 2024).

In experiment [1] the target is T1, iNOS-NOSIP protein interaction (Homo sapiens, UniProt Q9Y314).
T1 construct: made in house; host or cells: E. coli BL21 (DE3)
T1 sequence (Q9Y314 with tags, fused parts or gaps): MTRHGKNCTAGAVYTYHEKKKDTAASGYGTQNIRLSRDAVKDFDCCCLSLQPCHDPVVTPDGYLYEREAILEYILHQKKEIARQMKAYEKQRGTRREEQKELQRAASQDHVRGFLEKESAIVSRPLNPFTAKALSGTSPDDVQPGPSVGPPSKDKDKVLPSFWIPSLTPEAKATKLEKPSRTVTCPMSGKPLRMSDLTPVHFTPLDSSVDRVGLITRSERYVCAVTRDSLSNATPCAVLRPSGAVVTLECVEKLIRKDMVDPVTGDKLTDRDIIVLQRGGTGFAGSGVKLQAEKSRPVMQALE
Nature of the experiment: SPR: inhibition of rNOSIP association with immobilized recombinant iNOS by iNOS peptides / small molecules. Format: binding. The settings on record: for inhibition hierarchy of iNOS-NOSIP protein interaction: SPR, rank order; for kon / Kd: analyte rNOSIP alone or + peptide/small molecule, ligand r iNOS, 20° C.; for kon: 1:1 Langmuir, read-out: Ka; for Kd: Kd/Ka; for inhibition of binding of NOSIP with iNOS ligand by small molecules: rNOSIP 250 nM, small molecules 1 uM, SPR (FIG. 4); for inhibition of iNOS-NOSIP protein interaction by iNOS derived peptides: iNOS peptides 250 nM, proteins 125 nM, SPR (FIG. 2(a)). The protocol:
Four different iNOS peptides were synthesized commercially by China peptides and iNOS peptides were used for molecular interaction studies with immobilized recombinant iNOS purified protein. The iNOS peptides mediated inhibition of rNOSIP and riNOS protein association in Bio-Rad XPR 36 surface plasmon resonance biosensor instrument. […] 250 nM of iNOS peptides was used for inhibition assay with immobilized ligand(recombinant iNOS) in SPR analysis. Similar condition and concentration of small molecules were used for inhibition of recombinant protein association with immobilized ligand. […] The rNOSIP protein was incubated with iNOS derived peptide/small molecules for 30 minutes in ice for inhibition assay before the SPR application in our study. The molecular interaction was carried out at 20° C. and kinetic parameters were determined, after fitting the association and dissociation curves to a 1:1 (Langmuir)-binding model. An activated channel without immobilized ligand was used to evaluate nonspecific binding. The response curves were also recorded on control surfaces. Results were calculated after subtraction of the control values using the ProteOn Manager software.
The collected sensorgram data were processed by reference subtraction using double-referencing with the in-line blank buffer. The integrated ProteOn Manager software was used to fit the data with the Langmuir model describing a 1:1 binding stoichiometry. Ka is the association rate constant, Kd is the dissociation rate constant, and KD is the equilibrium dissociation constant, defined by the Kd/Ka ratio for the analytes-ligand binding.
The five small molecules bind with NOSIP and inhibit the association of recombinant NOSIP and recombinant iNOS. The rNOSIP protein was incubated with iNOS derived peptide or small molecules for 30 minutes in ice prior to SPR application. The molecular interaction was carried out at 20° C. and kinetic parameters were determined, after fitting the association and dissociation curves to a 1:1 (Langmuir)-binding model. An activated channel without immobilized ligand (recombinant iNOS) was used to evaluate nonspecific binding. The response curves were also recorded on control surfaces. Results were calculated after subtraction of the control values using the ProteOn Manager software.
The collected sensorgram data were processed by reference subtraction using double-referencing with the in-line blank buffer. The integrated ProteOn
Manager software was used to fit the data with the Langmuir model describing a 1:1 binding stoichiometry. Ka is the association rate constant, Kd is the dissociation rate constant, and KD is the equilibrium dissociation constant, defined by the Kd/Ka ratio for the analytes—ligand binding.
(SPR reads the build-up and loss of mass on a sensor chip optically.)

Another experiment has as its target T2, rNOSIP (Homo sapiens, UniProt Q9Y314).
T2 construct: made in house; host or cells: E. coli BL21 (DE3)
T2 sequence (Q9Y314 with tags, fused parts or gaps): T1 sequence (Q9Y314 with tags, fused parts or gaps)
Nature of the experiment: Isothermal titration calorimetry (ITC) of rNOSIP with small molecules / 18 mer iNOS peptide (PP2). Format: binding. The note with it: for Fold Change (KD): ITC KD relative to iNOS-Peptide2 = 1; for SM binding affinity with NOSIP, hierarchy: ITC, rank order. The procedure:
The 18 mer iNOS peptide (PP2) and small molecules were used for physical association of molecules in calorimetric analysis. The molecular association leads to thermodynamics changes such as Gibb's free energy change (ΔG), entropy change (ΔS), enthalpy change (ΔH) and number of binding sites (N) in interacting solution were investigated by isothermal calorimetry MICROCAL PEQ (Malvern) at 25° C. […] The experiment consisted of multiple injections and each injection contained 1.5 μl of binding solution (recombinant NOSIP solution) with 120 second spacing time between subsequent injections. Sequential titrations were carried out and the sample solution was continuously stirred at 270 rpm by the rotating paddle attached to the syringe needle. Multiple injections of NOSIP made into the sample cell containing interacting solution of peptide and small molecules. The titration curves were analyzed using the analysis software provided with the calorimeter.
The 18 mer iNOS peptide (PP2) and five small molecules were used to analyze physical association in calorimetric analysis. The molecular association leads to thermodynamics changes such as Gibb's free energy change (ΔG), entropy change (ΔS), enthalpy change (ΔH) and number of binding sites (N) in interacting solution were investigated by isothermal calorimetry MICROCAL PEQ (Malvern) at 25° C. […] The experiment consisted of multiple injections and each injection contained 1.5 μl of binding solution with 120 second spacing time between subsequent injections. Sequential titrations were carried out and the sample solution was continuously stirred at 270 rpm by the rotating paddle attached to the syringe needle. Multiple injections of NOSIP made into the sample cell containing interacting solution of peptide and small molecules. The titration curves were analyzed using the analysis software provided with the calorimeter.
Background: In ITC the heat of successive injections is recorded.

Setting [2] is: ITC 25° C., small molecule/peptide in cell, NOSIP in syringe.
Setting [3] is: 10 μM iNOS peptide in the chamber, 150 μM rNOSIP in syringe, 25° C. (FIG. 3).

Peptide text beside a SMILES is read from it.

In the case of `NS(=O)(=O)c1ccc(CCNC(=O)CCCn2c(SCC(=O)c3ccc(Cl)c(Cl)c3)nc3ccsc3c2=O)cc1` [MCULE-3765839647, 4-(2-{[2-(3,4-dichlorophenyl)-2-oxoethyl]sulfanyl}-4-oxo-3H,4H-thieno[3,2-d]pyrimidin-3-yl)-N-[2-(4-sulfamoylphenyl)ethyl]butanamide], in experiment [1], the “inhibition hierarchy of iNOS-NOSIP protein interaction” value (shortened to “inhibition hierarchy”) is reported as “CC4>CC11>CC6>CC5>CC13>iNOS Peptide 2”; the kon amounted to 0.807 M⁻¹ s⁻¹; the equilibrium dissociation constant (Kd) (as a rule, the free concentration of one partner at which half of the binding sites on the other are occupied at equilibrium, for simple one-to-one binding) stood at 704000 nM; the “inhibition of binding of NOSIP with iNOS ligand by small molecules” value (shortened to “inhibition of binding of NOSIP”) is given as “inhibit the binding of NOSIP with iNOS ligand”. On rNOSIP (ITC 25° C.), the “ΔG” value was -7.5 kcal/mol, the “ΔH” value was -27.3 ± 1.11 kcal/mol and the “−TΔS” value is 19.8 kcal/mol. Also, on rNOSIP (setting [2]), binding was put at a Kd of 524 ± 64.9 nM and the “N (Sites)” value turned out to be 0.989. Moreover, on rNOSIP, the “Fold Change (KD)” value is 0.956 and the “SM binding affinity with NOSIP, hierarchy” value (“SM binding affinity” below) is “CC4>CC11>CC6>CC5>CC13>Peptide 2 (iNOS)”.
Regarding `CCCCN=c1scc(-c2ccc(O)c(C(N)=O)c2)n1N=Cc1cc(Br)c(O)c(OC)c1` [MCULE-8395438746, 5-(3-{[(3-bromo-4-hydroxy-5-methoxyphenyl)methylidene]amino}-2-(butylimino)-2,3-dihydro-1,3-thiazol-4-yl)-2-hydroxybenzamide], in experiment [1], the “inhibition hierarchy” value is “CC4>CC11>CC6>CC5>CC13>iNOS Peptide 2”, the kon was 0.835 M⁻¹ s⁻¹, the equilibrium dissociation constant (Kd) was 543000 nM and the “inhibition of binding of NOSIP” value is “inhibit the binding of NOSIP with iNOS ligand”. On rNOSIP (ITC 25° C.), the “ΔG” value was -8.55 kcal/mol, the “ΔH” value is -28.5 ± 0.694 kcal/mol and the “−TΔS” value worked out at 20.0 kcal/mol. On rNOSIP (setting [2]), the dissociation constant (Kd) turned out to be 542 ± 54.9 nM and the “N (Sites)” value was determined as 0.864. Also, on rNOSIP, the “Fold Change (KD)” value amounted to 0.989 and the “SM binding affinity” value is given as “CC4>CC11>CC6>CC5>CC13>Peptide 2 (iNOS)”.
`Cc1ccc(-c2nnn(CC(=O)N(Cc3ccco3)C(C(=O)NC(C)(C)C)c3ccc(O)cc3)n2)cc1` (stereo not drawn) [MCULE-8469877005, N-tert-butyl-2-{N-[(furan-2-yl)methyl]-2-[5-(4-methylphenyl)-2H-1,2,3,4-tetrazol-2-yl]acetamido}-2-(4-hydroxyphenyl) acetamide]: in experiment [1], the “inhibition hierarchy” value was “CC4>CC11>CC6>CC5>CC13>iNOS Peptide 2”, the kon was found to be 0.822 M⁻¹ s⁻¹, the Kd is 588000 nM and the “inhibition of binding of NOSIP” value is listed as “inhibit the binding of NOSIP with iNOS ligand”. At rNOSIP (ITC 25° C.), the “ΔG” value is -8.56 kcal/mol, the “ΔH” value is -29.3 ± 1.12 kcal/mol and the “−TΔS” value was 20.8 kcal/mol. Besides, at rNOSIP (setting [2]), the dissociation constant Kd came out at 535 ± 80.8 nM and the “N (Sites)” value is listed as 0.794. At rNOSIP, the “Fold Change (KD)” value is given as 0.976 and the “SM binding affinity” value is “CC4>CC11>CC6>CC5>CC13>Peptide 2 (iNOS)”.
For the molecule `CC[C@H](C)[C@H](NC(=O)[C@H](CCCCN)NC(=O)[C@H](C)NC(=O)[C@H](CCC(=O)O)NC(=O)[C@H](CCCCN)NC(=O)[C@H](Cc1ccccc1)NC(=O)[C@H](CO)NC(=O)CNC(=O)[C@H](Cc1ccc(O)cc1)NC(=O)[C@H](Cc1ccc(O)cc1)NC(=O)[C@H](CCC(N)=O)NC(=O)[C@@H](N)CC(N)=O)C(=O)N[C@@H](CCC(=O)O)C(=O)N[C@@H](CCC(=O)O)C(=O)N[C@@H](Cc1c[nH]cn1)C(=O)N[C@@H](CC(C)C)C(=O)N[C@@H](C)C(=O)N[C@@H](CCCNC(=N)N)C(=O)O` [iNOS-Peptide2] (H-NQYYGSFKEAKIEEHLAR-OH; N-terminus and C-terminus assumed), in experiment [1] (SPR KD relative to rNOSIP + iNOS peptide2 = 1), the “Fold Change (KD)” value amounted to 1. Also, in experiment [1], the “inhibition hierarchy” value is “CC4>CC11>CC6>CC5>CC13>iNOS Peptide 2” and the kon came out at 536 M⁻¹ s⁻¹. In experiment [1] (listed as PP2), the “inhibition of iNOS-NOSIP protein interaction by iNOS derived peptides” value (“inhibition … by iNOS derived peptides” below) is “inhibited”. Moreover, the “inhibition … by iNOS derived peptides” value in experiment [1] (listed as PP-2) was “block significantly interaction between recombinant iNOS and NOSIP”. At rNOSIP (setting [3]), the dissociation constant (Kd) is 493 ± 63.2 nM, the “ΔG” value is -8.61 kcal/mol, the “ΔH” value is -9.07 ± 0.251 kcal/mol and the “−TΔS” value worked out at 0.459 kcal/mol. Besides, on rNOSIP (ITC 25° C.), the “ΔG” value is -8.54 kcal/mol, the “ΔH” value was -8.44 ± 0.271 kcal/mol and the “−TΔS” value is -0.10 kcal/mol. Moreover, the “N (Sites)” value at rNOSIP (setting [2]) amounted to 1.09. On rNOSIP, the “Fold Change (KD)” value is on record as 1 and the “SM binding affinity” value is on record as “CC4>CC11>CC6>CC5>CC13>Peptide 2 (iNOS)”.
As to “PP1: iNOS derived peptide, SEQ ID No: 25 (TGDELIFATKQAWR; Human)”, the “inhibition … by iNOS derived peptides” value in experiment [1] is “inhibited”; in experiment [1] (listed as Peptide-1), “less efficient in inhibiting interaction between iNOS and NOSIP”.
On to “PP3: iNOS derived peptide, SEQ ID No: 27 (GWKPKYGRFDVVPLVLQANGRDPELFEIPPDLVL; Human)”, for which the “inhibition … by iNOS derived peptides” value is “inhibited” in experiment [1]; “less efficient in inhibiting interaction between iNOS and NOSIP” in experiment [1] (listed as Peptide3).
Regarding “PP4: iNOS derived peptide, SEQ ID No: 28 (NLQVFDARSCSTAREMFEHICRHVRYSTNNGNI; Human)”, the “inhibition … by iNOS derived peptides” value in experiment [1] was “inhibited”; in experiment [1] (listed as peptide-4), “less efficient in inhibiting interaction between iNOS and NOSIP”.
